Measured values: patent US8133901B2, “3-heteroaryl (amino or amido)-1-(biphenyl or phenylthiazolyl) carbonylpiperidine derivatives as orexin receptor inhibitors” (Actelion Pharmaceuticals Ltd., priority 2006, dated 2012)

Columns and labels:
human orexin-2 receptor = biological target: T1, human orexin-2 receptor (Homo sapiens, UniProt O43614); assay: Intracellular calcium measurements (FLIPR), orexin receptor antagonistic activity, OX2; format: cell-based; conditions: CHO cells expressing the human orexin-2 receptor; 10 nM orexin-A as agonist; fluo-3 calcium signal
T1 construct: expressed in transfected cells; host or cells: CHO cells (G418 selection)
T1 sequence (O43614 1-444): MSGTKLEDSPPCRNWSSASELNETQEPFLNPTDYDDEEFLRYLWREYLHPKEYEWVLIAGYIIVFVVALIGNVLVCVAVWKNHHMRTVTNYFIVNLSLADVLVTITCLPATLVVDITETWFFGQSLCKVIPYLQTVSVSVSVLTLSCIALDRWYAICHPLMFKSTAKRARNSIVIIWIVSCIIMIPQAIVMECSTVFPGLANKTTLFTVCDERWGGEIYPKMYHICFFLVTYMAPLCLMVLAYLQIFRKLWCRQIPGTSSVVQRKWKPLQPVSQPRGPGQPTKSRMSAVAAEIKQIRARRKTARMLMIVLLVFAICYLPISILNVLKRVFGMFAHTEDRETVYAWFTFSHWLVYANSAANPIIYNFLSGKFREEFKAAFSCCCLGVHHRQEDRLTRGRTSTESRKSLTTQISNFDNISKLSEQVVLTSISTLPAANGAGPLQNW
Protocol: (§1) The orexin receptor antagonistic activity of the compounds of formula (I) is determined in accordance with the following experimental method.
(§2) Chinese hamster ovary (CHO) cells expressing the human orexin-1 receptor and the human orexin-2 receptor, respectively, are grown in culture medium (Ham F-12 with L-Glutamine) containing 300 μg/ml G418, 100 U/ml penicillin, 100 μg/ml streptomycin and 10% inactivated fetal calf serum (FCS). The cells are seeded at 80′000 cells/well into 96-well black clear bottom sterile plates (Costar) which have been precoated with 1% gelatine in Hanks' Balanced Salt Solution (HBSS). All reagents are from Gibco BRL. The seeded plates are incubated overnight at 37° C. in 5% CO2.
(§3) Human orexin-A as an agonist is prepared as 1 mM stock solution in methanol:water (1:1), diluted in HBSS containing 0.1% bovine serum albumin (BSA) and 2 mM HEPES for use in the assay at a final concentration of 10 nM.
(§4) Antagonists are prepared as 10 mM stock solution in DMSO, then diluted in 96-well plates, first in DMSO, then in HBSS containing 0.1% bovine serum albumin (BSA) and 2 mM HEPES.
(§5) On the day of the assay, 100 μl of loading medium (HBSS containing 1% FCS, 2 mM HEPES, 5 mM probenecid (Sigma) and 3 μM of the fluorescent calcium indicator fluo-3 AM (1 mM stock solution in DMSO with 10% pluronic acid) (Molecular Probes) is added to each well.
(§6) The 96-well plates are incubated for 60 min at 37° C. in 5% CO2. The loading solution is then aspirated and cells are washed 3 times with 200 μl HBSS containing 2.5 mM probenecid, 0.1% BSA, 2 mM HEPES. 100 μl of that same buffer is left in each well.
(§7) Within the Fluorescent Imaging Plate Reader (FLIPR, Molecular Devices), antagonists are added to the plate in a volume of 50 μl, incubated for 20 min and finally 100 μl of agonist is added. Fluorescence is measured for each well at 1 second intervals, and the height of each fluorescence peak is compared to the height of the fluorescence peak induced by 10 nM orexin-A with buffer in place of antagonist. For each antagonist, IC50 value (the concentration of compound needed to inhibit 50% of the agonistic response) is determined.

human orexin-1 receptor = biological target: T2, human orexin-1 receptor (Homo sapiens, UniProt O43613); assay: Intracellular calcium measurements (FLIPR), orexin receptor antagonistic activity, OX1; format: cell-based; conditions: CHO cells expressing the human orexin-1 receptor; 10 nM orexin-A as agonist; fluo-3 calcium signal
T2 construct: expressed in transfected cells; host or cells: CHO cells (G418 selection)
T2 sequence (O43613 1-425): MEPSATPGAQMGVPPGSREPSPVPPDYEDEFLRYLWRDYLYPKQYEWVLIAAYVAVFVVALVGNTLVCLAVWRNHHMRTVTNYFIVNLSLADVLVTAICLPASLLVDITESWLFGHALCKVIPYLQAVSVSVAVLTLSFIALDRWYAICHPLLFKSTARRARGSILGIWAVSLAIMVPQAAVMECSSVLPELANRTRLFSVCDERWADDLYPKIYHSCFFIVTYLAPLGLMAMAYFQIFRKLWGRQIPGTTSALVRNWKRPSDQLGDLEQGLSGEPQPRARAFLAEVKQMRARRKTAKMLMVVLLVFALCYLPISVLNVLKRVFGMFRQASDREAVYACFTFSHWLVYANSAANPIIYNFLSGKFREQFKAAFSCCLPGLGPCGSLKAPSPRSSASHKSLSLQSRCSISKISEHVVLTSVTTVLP
Protocol: as §1, §2, §3, §4, §5, §6, §7

Row | Compound | IC50 (human orexin-2 receptor) [nM] | IC50 (human orexin-1 receptor) [nM]
1 | O=C(c1ccccc1-c1ccccc1)N1CCC[C@@H](Nc2ncc(Br)cn2)C1 [Example 1, (R)-Biphenyl-2-yl-[3-(5-bromo-pyrimidin-2-ylamino)-piperidin-1-yl]-methanone] | 392 | 294
2 | O=C(c1ccccc1-c1ccccc1F)N1CCC[C@@H](Nc2ncc(Br)cn2)C1 [Example 3, (R)-[3-(5-Bromo-pyrimidin-2-ylamino)-piperidin-1-yl]-(2′-fluoro-biphenyl-2-yl)-methanone] | 171 | 81

The remaining compounds from weak to strong by IC50 (human orexin-2 receptor), led by results:

Row | IC50 (human orexin-2 receptor) [nM] | IC50 (human orexin-1 receptor) [nM] | Compound
3 | 165 | 101 | Cc1ccc(-c2sc(C)nc2C(=O)N2CCC[C@@H](NC(=O)c3c(C)nc4sccn34)C2)cc1 [Example 9, (R)-6-Methyl-imidazo[2,1-b]thiazole-5-carboxylic acid[1-(2-methyl-5-p-tolyl-thiazole-4-carbonyl)-piperidin-3-yl]-amide]
4 | 97 | 65 | Cc1nc(C(=O)N2CCC[C@@H](NC(=O)c3c(C)nc4sccn34)C2)c(-c2ccccc2F)s1 [Example 15, (R)-6-Methyl-imidazo[2,1-b]thiazole-5-carboxylic acid{1-[5-(2-fluoro-phenyl)-2-methyl-thiazole-4-carbonyl]-piperidin-3-yl}-amide]
5 | 50 | 27 | Cc1cccc(-c2sc(C)nc2C(=O)N2CCC[C@@H](NC(=O)c3c(C)nc4sccn34)C2)c1 [Example 7, (R)-6-Methyl-imidazo[2,1-b]thiazole-5-carboxylic acid[1-(2-methyl-5-m-tolyl-thiazole-4-carbonyl)-piperidin-3-yl]-amide]
